Patent US20220387411A1, “TARGETED AUTOPHAGY CONJUGATES AND METHODS” (Frontier Medicines Corporation, priority 2019, published 2022)

Biological target: T1, Recombinant pure human SQSTM1 protein (Homo sapiens, UniProt Q13501)
T1 construct: purchased Origene
Test: Inhibition of IA-Rhodamine labeling of SQSTM1 (gel-based, densitometry)
Type: binding
Conditions: 50 μM of test compound (initial screen); 30 min at 37° C., then 100 nM IA-Rhodamine 1 hour; inhibition of target labeling by densitometry
Description: Recombinant pure human SQSTM1 protein was purchased from Origene. SQSTM1 protein (0.21 μg) was diluted into 50 μL of PBS and 1 μL of either DMSO (vehicle) or covalently acting small molecule (test compound) to achieve the desired concentration. After 30 min. at 37° C., the samples were treated with 100 nM IA-Rhodamine (tetramethylrhodamine-5-iodoacetamide dihydroiodide; Setareh Biotech, 6222, prepared in anhydrous DMSO) for 1 hour at room temperature. Samples were then diluted with 20 μL of 4× reducing Laemmli SDS sample loading buffer (Alfa Aesar) and heated at 90° C. for 5 min. The samples were separated on precast 4-20% Criterion TGX gels (Bio-Rad Laboratories, Inc.). Fluorescent imaging was performed on a ChemiDoc MP instrument (Bio-Rad Laboratories, Inc.), and inhibition of target labeling was assessed by densitometry using ImageJ software. The initial screen was performed using 50 μM of test compound.

T1 sequence (Q13501 whole entry): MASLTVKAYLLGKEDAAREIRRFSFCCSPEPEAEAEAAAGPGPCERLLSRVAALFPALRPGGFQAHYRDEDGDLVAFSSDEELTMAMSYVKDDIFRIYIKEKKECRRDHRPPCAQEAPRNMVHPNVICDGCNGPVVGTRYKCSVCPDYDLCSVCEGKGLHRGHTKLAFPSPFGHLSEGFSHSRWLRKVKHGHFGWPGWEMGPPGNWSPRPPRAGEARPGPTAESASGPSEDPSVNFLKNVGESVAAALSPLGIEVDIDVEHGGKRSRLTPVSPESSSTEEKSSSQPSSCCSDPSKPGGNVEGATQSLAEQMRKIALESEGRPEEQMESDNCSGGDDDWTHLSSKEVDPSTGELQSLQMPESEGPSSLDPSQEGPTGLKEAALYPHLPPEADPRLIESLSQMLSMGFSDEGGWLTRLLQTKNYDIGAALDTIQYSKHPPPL

SMILES | inhibition at 50 µM [%] | % inhibition
O=C(NCC1(F)CCCN(C(=O)CCl)CC1)OCc1ccccc1 (stereo not drawn) [Compound 38, Benzyl ((1-(2-chloroacetyl)-4-fluoroazepan-4-yl)methyl)carbamate] | 40 | –
O=C(CCl)N1CCCC2(CCCN2)CC1 (stereo not drawn) [Compound 69, 2-chloro-1-(1,8-diazaspiro[4.6]undecan-8-yl)ethanone] | 22 | –
CC(C)(C)OC(=O)N1CCC(N(C(=O)CCl)C2CC2)CC1 [Compound 6, Tert-butyl 4-(2-chloro-N-cyclopropylacetamido)piperidine-1-carboxylate] | 56 | –
O=C(CCl)N1CCCCC(O)C1 (stereo not drawn) [Compound 44, 2-chloro-1-(3-hydroxyazepan-1-yl)ethanone] | 13 | –
CC(C)(C)OC(=O)N1CCCCC2(CCCCN(C(=O)CCl)C2)C1 (stereo not drawn) [Compound 58, Tert-butyl 9-(2-chloroacetyl)-2,9-diazaspiro[6.6]tridecane-2-carboxylate] | 82 | –
CC1CCCCCN1C(=O)CCl (stereo not drawn) [Compound 13, 2-chloro-1-(2-methylazepan-1-yl)ethan-1-one] | 49 | –
O=C(CCl)N1CC2CNC(C2)C1 (stereo not drawn) [Compound 73, 2-chloro-1-(3,6-diazabicyclo[3.2.1]octan-3-yl)ethanone] | 38 | –
CC(C)N(C(=O)CCl)C1CCCNCC1 (stereo not drawn) [Compound 64, N-(azepan-4-yl)-2-chloro-N-isopropyl-acetamide] | 22 | –
O=C(NC1CCCN(C(=O)CCl)CC1)OCc1ccccc1 (stereo not drawn) [Compound 46, Benzyl (1-(2-chloroacetyl)azepan-4-yl)carbamate] | 31 | –
CC(C)(C)OC(=O)N1CC2CC1CN(C(=O)CCl)C2 (stereo not drawn) [Compound 61, Tert-butyl 3-(2-chloroacetyl)-3,6-diazabicyclo[3.2.1]octane-6-carboxylate] | 18 | –
COC(=O)c1ccc(CN(C(=O)CCl)C2CCN(C(=O)OC(C)(C)C)CC2)[nH]1 [Compound 9, Tert-butyl 4-(2-chloro-N-((5-(methoxycarbonyl)-1H-pyrrol-2-yl)methyl)acetamido) piperidine-1-carboxylate] | 64 | –
CCN1CCCN(C(=O)CCl)CC1 [Compound 14, 2-chloro-1-(4-ethyl-1,4-diazepan-1-yl)ethan-1-one] | 38 | –
O=C(NCC1(O)CCCN(C(=O)CCl)CC1)OCc1ccccc1 (stereo not drawn) [Compound 34, Benzyl ((1-(2-chloroacetyl)-4-hydroxyazepan-4-yl)methyl)carbamate] | 14 | –
CCOC(=O)c1cnc2n1CCN(C(=O)CCl)CC2 [Compound 54, Ethyl 7-(2-chloroacetyl)-6,7,8,9-tetrahydro-5H-imidazo[1,2-d][1,4]diazepine-3-carboxylate] | 46 | –
CC(C)(C)OC(=O)N1CCCC12CCCN(C(=O)CCl)CC2 (stereo not drawn) [Compound 57, Tert-butyl 8-(2-chloroacetyl)-1,8-diazaspiro[4.6]undecane-1-carboxylate] | 58 | –
NC1CCCCN(C(=O)CCl)C1 (stereo not drawn) [Compound 68, 1-(3-aminoazepan-1-yl)-2-chloro-ethanone] | 44 | –
CC1CN(C(=O)CCl)CCCC1CNC(=O)OCc1ccccc1 (stereo not drawn) [Compound 28, Benzyl ((1-(2-chloroacetyl)-3-methylazepan-4-yl)methyl)carbamate] | 59 | –
CCOC(=O)C1(C)CCCCN(C(=O)CCl)C1 (stereo not drawn) [Compound 25, Ethyl 1-(2-chloroacetyl)-3-methylazepane-3-carboxylate] | 31 | –

SMILES | inhibition at 50 µM [%] | % inhibition
COC(=O)c1ccc(CN(C(=O)CCl)C2CCNCC2)[nH]1 [Compound 65, Methyl 5-[[(2-chloroacetyl)-(4-piperidyl)amino]methyl]-1H-pyrrole-2-carboxylate] | 7 | –
O=C(CCl)N(Cc1ccccc1)C1CCCCC1 [Compound 2, N-benzyl-2-chloro-N-cyclohexylacetamide] | 50 | –
O=C(CCl)N(Cc1ccccc1)[C@H]1CCC[C@@H]1O [Compound 4, N-benzyl-2-chloro-N-((1S,2S)-2-hydroxycyclopentyl)acetamide] | 18 | –
O=C(CCl)N1Cc2ccnn2CC(O)C1 (stereo not drawn) [Compound 55, 2-chloro-1-(7-hydroxy-7,8-dihydro-4H-pyrazolo[1,5-a][1,4]diazepin-5(6H)-yl)ethanone] | 35 | –
COC(=O)N1CCCN(C(=O)CCl)CC1 [Compound 17, Methyl 4-(2-chloroacetyl)-1,4-diazepane-1-carboxylate] | 9 | –
C[C@H]1CNCCCN1C(=O)CCl [Compound 66, (S)-2-chloro-1-(2-methyl-1,4-diazepan-1-yl)ethanone] | – | not active
CC1CCN(C(=O)CCl)CCC1CNC(=O)OCc1ccccc1 (stereo not drawn) [Compound 41, Benzyl ((1-(2-chloroacetyl)-5-methylazepan-4-yl)methyl)carbamate] | 54 | –
O=C(NCC1CCCCN(C(=O)CCl)C1)OCc1ccccc1 (stereo not drawn) [Compound 27, Benzyl ((1-(2-chloroacetyl)azepan-3-yl)methyl)carbamate] | 58 | –
O=C(CCl)N1CCOCC2(CNCCO2)C1 (stereo not drawn) [Compound 71, 2-chloro-1-(1,8-dioxa-4,11-diazaspiro[5.6]dodecan-11-yl)ethanone] | – | not active
CC1(F)CCCCN(C(=O)CCl)C1 (stereo not drawn) [Compound 29, 2-chloro-1-(3-fluoro-3-methylazepan-1-yl)ethanone] | 38 | –
CCOC(=O)c1ncn2c1CN(C(=O)CCl)CCC2 [Compound 53, Ethyl 8-(2-chloroacetyl)-6,7,8,9-tetrahydro-5H-imidazo[1,5-a][1,4]diazepine-1-carboxylate] | 52 | –
O=C(CCl)N1CCCCC2(CCCCNC2)C1 (stereo not drawn) [Compound 70, 2-chloro-1-(2,9-diazaspiro[6.6]tridecan-2-yl)ethanone] | 22 | –
CC(C)N(C(=O)CCl)C1CCCN(C(=O)OC(C)(C)C)CC1 (stereo not drawn) [Compound 8, Tert-butyl 4-(2-chloro-N-isopropylacetamido)azepane-1-carboxylate] | 50 | –
O=C(CCl)N(Cc1ccccc1)[C@H]1COC[C@@H]1O [Compound 10, N-benzyl-2-chloro-N-[(3S,4R)-4-hydroxytetrahydrofuran-3-yl]acetamide] | 17 | –
O=C(CCl)N(C1CCNCC1)C1CC1 [Compound 62, 2-chloro-N-cyclopropyl-N-(4-piperidyl)acetamide] | 27 | –
O=C(CCl)N1CCNCC(O)C1 (stereo not drawn) [Compound 67, 2-chloro-1-(6-hydroxy-1,4-diazepan-1-yl)ethanone] | 35 | –
CC(C)(C)OC(=O)N1CCN(C(=O)CCl)CC2(CCCC(=O)N2)C1 (stereo not drawn) [Compound 60, Tert-butyl 11-(2-chloroacetyl)-2-oxo-1,8,11-triazaspiro[5.6]dodecane-8-carboxylate] | 21 | –

The remaining lines, values ahead:

inhibition at 50 µM [%] | % inhibition | SMILES
40 | – | O=C(CCl)N1CCCS(=O)(=O)CC1 [Compound 52, 2-chloro-1-(1,1-dioxido-1,4-thiazepan-4-yl)ethanone]
11 | – | CC1CCCN(C(=O)CCl)CC1 (stereo not drawn) [Compound 21, 2-chloro-1-(4-methylazepan-1-yl)ethanone]
34 | – | CC1(F)CCCN(C(=O)CCl)CC1 (stereo not drawn) [Compound 36, 2-chloro-1-(4-fluoro-4-methylazepan-1-yl)ethanone]
33 | – | O=C(CCl)N1CCCSCC1 [Compound 51, 2-chloro-1-(1,4-thiazepan-4-yl)ethanone]
9 | – | CC1(O)CCCN(C(=O)CCl)CC1 (stereo not drawn) [Compound 49, 2-chloro-1-(4-hydroxy-4-methylazepan-1-yl)ethanone]
– | not active | CC1CN(C(=O)CCl)CCCO1 (stereo not drawn) [Compound 22, 2-chloro-1-(2-methyl-1,4-oxazepan-4-yl)ethanone]
7 | – | O=C(CCl)N1CCC(O)C(F)CC1 (stereo not drawn) [Compound 48, 2-chloro-1-(4-fluoro-5-hydroxyazepan-1-yl)ethanone]
36 | – | O=C1CCN(C(=O)CCl)CCC1F (stereo not drawn) [Compound 47, 1-(2-chloroacetyl)-5-fluoroazepan-4-one]
– | not active | O=C(CCl)N1CCC(F)C(O)(C(F)(F)F)CC1 (stereo not drawn) [Compound 24, 2-chloro-1-(5-fluoro-4-hydroxy-4-(trifluoromethyl)azepan-1-yl)ethanone]
29 | – | O=C(CCl)N1CCCC(O)CC1 (stereo not drawn) [Compound 15, 2-chloro-1-(4-hydroxyazepan-1-yl)ethan-1-one]
50 | – | O=C(CCl)N1CCc2nccn2CC1 [Compound 56, 2-chloro-1-(8,9-dihydro-5H-imidazo[1,2-d][1,4]diazepin-7(6H)-yl)ethanone]
– | not active | CC1CCN(C(=O)CCl)CCC1(F)F (stereo not drawn) [Compound 40, 2-chloro-1-(4,4-difluoro-5-methylazepan-1-yl)ethanone]
21 | – | CC1(C)CCCN(C(=O)CCl)CC1 [Compound 23, 2-chloro-1-(4,4-dimethylazepan-1-yl)ethanone]
39 | – | CC1CCCCN(C(=O)CCl)C1 (stereo not drawn) [Compound 31, 2-chloro-1-(3-methylazepan-1-yl)ethanone]
32 | – | CC1CCN(C(=O)CCl)CCC1=O (stereo not drawn) [Compound 42, 1-(2-chloroacetyl)-5-methylazepan-4-one]
9 | – | O=C(CCl)N1CCCC(F)CC1 (stereo not drawn) [Compound 20, 2-chloro-1-(4-fluoroazepan-1-yl)ethanone]
